Data as given in patent publication US11098044B2, “Imidazopyridinyl compounds and use thereof for treatment of neurodegenerative disorders” (1ST Biotherapeutics, Inc., priority 2019, dated 2021).

Experiments:
Assay type in all cases: biochemical
[1] = target: c-Abl (His-tagged recombinant human ABL1) (Homo sapiens (Human), UniProt P00519); assay: c-abl Kinase Assay (ADP-Glo); conditions: ATP (25 μM), Abltide substrate
Summary of the method: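 His-tagged human ABL1 (0.25 ng/μl), Abltide (0.01 μg/μl) and ATP (25 μM), each at its added concentration, reacted with compound (0.5% DMSO) for 30 min at 30 °C. Buffer was 50 mM HEPES pH 7.5, 10 mM MgCl2, 1 mM EGTA, 0.05% BSA, 0.01% Triton X-100, 2 mM DTT. ADP formed was read by ADP-Glo luminescence, and IC50 was fitted from percent inhibition across concentrations.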

LRRK2 (WT) = LRRK2 (WT) (Homo sapiens (Human), UniProt Q5S007); assay: LRRK2 Kinase Assay (Adapta); conditions: 70 μM ATP, LRRKtide substrate
Summary of the method: (§1)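 Adapta TR-FRET kinase assay with LRRKtide substrate in 50 mM Tris pH 8.5, 0.01% BRIJ-35, 10 mM MgCl2, 1 mM EGTA, 0.02% NaN3. ATP at Km: 70 μM for WT LRRK2, 100 μM for G2019S. Reaction 1 h at room temperature; after 60 min with detection mix, 665/615 nm emission ratio read.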

LRRK2 G2019S = LRRK2 G2019S (Homo sapiens (Human), UniProt Q5S007, G2019S); assay: LRRK2 G2019S Kinase Assay (Adapta); conditions: 100 μM ATP, LRRKtide substrate; read-out: LRRK2_G2019S IC50
Summary of the method: as §1

Sequence of c-Abl (His-tagged recombinant human ABL1) (P00519 whole entry): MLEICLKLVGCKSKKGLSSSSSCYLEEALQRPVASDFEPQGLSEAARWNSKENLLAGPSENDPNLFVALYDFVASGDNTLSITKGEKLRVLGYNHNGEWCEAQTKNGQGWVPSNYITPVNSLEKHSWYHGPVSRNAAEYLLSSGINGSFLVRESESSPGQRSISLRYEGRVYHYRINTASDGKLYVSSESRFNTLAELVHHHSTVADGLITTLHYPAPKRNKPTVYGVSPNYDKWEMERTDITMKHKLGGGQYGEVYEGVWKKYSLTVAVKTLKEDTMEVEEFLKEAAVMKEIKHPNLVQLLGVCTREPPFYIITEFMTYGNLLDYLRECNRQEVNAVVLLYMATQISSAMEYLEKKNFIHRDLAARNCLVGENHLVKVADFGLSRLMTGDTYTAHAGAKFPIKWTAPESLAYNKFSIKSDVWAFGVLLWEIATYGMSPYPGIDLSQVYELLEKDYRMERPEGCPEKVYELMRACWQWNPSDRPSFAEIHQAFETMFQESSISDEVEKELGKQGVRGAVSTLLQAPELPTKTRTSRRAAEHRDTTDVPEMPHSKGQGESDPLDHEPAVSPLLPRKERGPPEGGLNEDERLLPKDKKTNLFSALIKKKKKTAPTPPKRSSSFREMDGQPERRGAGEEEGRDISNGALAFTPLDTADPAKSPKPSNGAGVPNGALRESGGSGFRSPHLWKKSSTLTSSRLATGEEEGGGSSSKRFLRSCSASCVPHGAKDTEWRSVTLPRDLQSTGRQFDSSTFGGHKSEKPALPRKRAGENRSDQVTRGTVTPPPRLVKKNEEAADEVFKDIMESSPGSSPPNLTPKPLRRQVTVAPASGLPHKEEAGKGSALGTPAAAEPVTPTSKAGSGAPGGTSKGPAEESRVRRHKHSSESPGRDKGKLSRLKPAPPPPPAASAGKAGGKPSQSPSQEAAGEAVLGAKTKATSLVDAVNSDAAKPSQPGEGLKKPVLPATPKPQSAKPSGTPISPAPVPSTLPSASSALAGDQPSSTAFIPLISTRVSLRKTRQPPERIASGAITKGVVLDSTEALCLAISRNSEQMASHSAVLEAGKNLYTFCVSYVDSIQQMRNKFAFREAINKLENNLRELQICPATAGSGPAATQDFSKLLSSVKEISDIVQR
Sequence of LRRK2 (WT) (Q5S007 whole entry): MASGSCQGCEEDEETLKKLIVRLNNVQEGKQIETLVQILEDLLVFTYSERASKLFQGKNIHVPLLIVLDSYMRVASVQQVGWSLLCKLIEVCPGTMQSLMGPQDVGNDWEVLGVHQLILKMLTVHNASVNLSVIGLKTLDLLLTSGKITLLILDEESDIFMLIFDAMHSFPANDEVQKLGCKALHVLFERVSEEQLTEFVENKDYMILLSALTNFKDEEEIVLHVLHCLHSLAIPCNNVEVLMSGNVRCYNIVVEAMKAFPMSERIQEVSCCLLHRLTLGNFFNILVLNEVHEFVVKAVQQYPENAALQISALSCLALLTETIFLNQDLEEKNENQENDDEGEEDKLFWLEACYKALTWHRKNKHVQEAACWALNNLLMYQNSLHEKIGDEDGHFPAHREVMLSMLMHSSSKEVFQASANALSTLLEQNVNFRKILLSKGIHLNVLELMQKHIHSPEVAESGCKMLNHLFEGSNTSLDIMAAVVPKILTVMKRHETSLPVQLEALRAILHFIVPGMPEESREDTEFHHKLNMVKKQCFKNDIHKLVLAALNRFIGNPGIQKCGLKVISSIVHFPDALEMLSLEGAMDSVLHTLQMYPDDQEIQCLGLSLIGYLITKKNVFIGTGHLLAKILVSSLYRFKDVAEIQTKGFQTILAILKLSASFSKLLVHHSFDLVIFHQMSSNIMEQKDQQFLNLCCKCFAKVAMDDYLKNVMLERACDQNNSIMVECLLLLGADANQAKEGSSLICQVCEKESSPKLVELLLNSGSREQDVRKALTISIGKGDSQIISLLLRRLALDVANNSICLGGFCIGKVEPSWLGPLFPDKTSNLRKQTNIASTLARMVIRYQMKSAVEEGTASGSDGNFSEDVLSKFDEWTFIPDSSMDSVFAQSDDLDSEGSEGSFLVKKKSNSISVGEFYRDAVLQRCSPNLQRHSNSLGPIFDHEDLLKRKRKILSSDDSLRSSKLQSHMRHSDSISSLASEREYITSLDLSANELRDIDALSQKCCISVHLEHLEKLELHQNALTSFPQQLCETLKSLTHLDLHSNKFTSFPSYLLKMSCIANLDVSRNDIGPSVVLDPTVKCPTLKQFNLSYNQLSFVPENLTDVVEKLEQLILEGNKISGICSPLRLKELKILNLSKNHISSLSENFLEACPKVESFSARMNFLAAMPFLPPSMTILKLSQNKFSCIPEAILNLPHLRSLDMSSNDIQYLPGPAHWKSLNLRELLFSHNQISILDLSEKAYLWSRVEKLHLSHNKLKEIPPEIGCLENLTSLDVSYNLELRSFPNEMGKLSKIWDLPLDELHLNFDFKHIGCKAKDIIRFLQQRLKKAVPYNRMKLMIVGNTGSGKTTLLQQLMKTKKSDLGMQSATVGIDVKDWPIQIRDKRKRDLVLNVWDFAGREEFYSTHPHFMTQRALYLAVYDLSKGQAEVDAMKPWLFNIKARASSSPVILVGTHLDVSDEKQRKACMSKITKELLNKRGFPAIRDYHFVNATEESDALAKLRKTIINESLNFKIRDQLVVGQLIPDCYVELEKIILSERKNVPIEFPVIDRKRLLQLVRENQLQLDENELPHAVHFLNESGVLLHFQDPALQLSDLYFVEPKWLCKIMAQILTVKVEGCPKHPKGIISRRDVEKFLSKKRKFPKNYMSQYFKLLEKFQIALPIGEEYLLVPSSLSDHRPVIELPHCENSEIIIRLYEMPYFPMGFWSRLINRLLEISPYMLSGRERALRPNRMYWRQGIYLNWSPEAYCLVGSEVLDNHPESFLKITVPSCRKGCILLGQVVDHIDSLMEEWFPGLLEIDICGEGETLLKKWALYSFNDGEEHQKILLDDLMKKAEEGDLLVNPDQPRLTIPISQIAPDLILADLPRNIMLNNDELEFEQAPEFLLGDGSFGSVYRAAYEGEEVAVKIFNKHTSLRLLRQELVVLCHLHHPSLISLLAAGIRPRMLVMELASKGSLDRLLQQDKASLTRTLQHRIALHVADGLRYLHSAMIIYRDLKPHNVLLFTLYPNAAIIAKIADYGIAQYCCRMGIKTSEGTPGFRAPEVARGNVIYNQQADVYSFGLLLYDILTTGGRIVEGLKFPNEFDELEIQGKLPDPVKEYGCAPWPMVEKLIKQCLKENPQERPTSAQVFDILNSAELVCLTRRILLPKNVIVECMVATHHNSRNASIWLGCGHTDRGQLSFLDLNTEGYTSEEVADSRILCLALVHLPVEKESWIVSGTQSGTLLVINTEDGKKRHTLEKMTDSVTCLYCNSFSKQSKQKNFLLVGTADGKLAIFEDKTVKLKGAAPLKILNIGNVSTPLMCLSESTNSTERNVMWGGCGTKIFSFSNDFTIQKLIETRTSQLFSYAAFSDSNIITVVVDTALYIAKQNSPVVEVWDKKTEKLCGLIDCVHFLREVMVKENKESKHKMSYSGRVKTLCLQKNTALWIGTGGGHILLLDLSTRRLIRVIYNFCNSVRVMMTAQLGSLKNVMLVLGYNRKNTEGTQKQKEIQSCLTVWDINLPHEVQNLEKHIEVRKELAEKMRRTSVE
Sequence of LRRK2 G2019S (Q5S007 whole entry G2019S): as the sequence (Q5S007 whole entry) above, with G2019S counted along it

`Cc1c[nH]c2ncc(-c3ccc4nc(NC(=O)[C@@H]5C[C@@H]5F)cn4c3)cc12` [Example 53, (1S,2S)-2-fluoro-N-(6-(3-methyl-1H-pyrrolo[2,3-b]pyridin-5-yl)imidazo[1,2-a]pyridin-2-yl)cyclopropane-1-carboxamide] showed an IC50 [1] of less than 10 nM, an IC50 (LRRK2 (WT)) of 101 to 1000 nM and an IC50 (LRRK2 G2019S) of 10 to 100 nM.
For `O=C(Nc1cn2cc(-c3ccc4sc(=O)[nH]c4c3)ccc2n1)[C@@H]1C[C@@H]1F` [Example 54, (1S,2S)-2-fluoro-N-(6-(2-oxo-2,3-dihydrobenzo[d]thiazol-5-yl)imidazo[1,2-a]pyridin-2-yl)cyclopropane-1-carboxamide], the IC50 [1] was 10 to 100 nM, the IC50 (LRRK2 (WT)) was greater than 1000 nM and the IC50 (LRRK2 G2019S) was 101 to 1000 nM.
`Nc1ccc(-c2ccc3nc(NC(=O)[C@@H]4C[C@@H]4F)cn3c2)cn1` [Example 55, (1S,2S)—N-(6-(6-aminopyridin-3-yl)imidazo[1,2-a]pyridin-2-yl)-2-fluorocyclopropane-1-carboxamide] was tested, and the IC50 [1] was 10 to 100 nM, the IC50 (LRRK2 (WT)) was 101 to 1000 nM and the IC50 (LRRK2 G2019S) was 101 to 1000 nM.
For `Cc1ccc(-n2cccn2)cc1-c1ccc2nc(NC(=O)[C@@H]3C[C@@H]3F)cn2c1` [Example 56, (1S,2S)-2-fluoro-N-(6-(2-methyl-5-(1H-pyrazol-1-yl)phenyl)imidazo[1,2-a]pyridin-2-yl)cyclopropane-1-carboxamide], the IC50 [1] was less than 10 nM, the IC50 (LRRK2 (WT)) was 101 to 1000 nM and the IC50 (LRRK2 G2019S) was 101 to 1000 nM.
With `O=C(Nc1cn2cc(-c3cccc(F)c3CO)ccc2n1)[C@@H]1C[C@@H]1F` [Example 57, (1S,2S)-2-fluoro-N-(6-(3-fluoro-2-(hydroxymethyl)phenyl)imidazo[1,2-a]pyridin-2-yl)cyclopropane-1-carboxamide] the IC50 [1] was less than 10 nM, the IC50 (LRRK2 (WT)) was greater than 1000 nM and the IC50 (LRRK2 G2019S) was greater than 1000 nM.
Compound `COc1c(F)cccc1-c1ccc2nc(NC(=O)[C@@H]3C[C@@H]3F)cn2c1` [Example 59, (1S,2S)-2-fluoro-N-(6-(3-fluoro-2-methoxyphenyl)imidazo[1,2-a]pyridin-2-yl)cyclopropanecarboxamide] has an IC50 [1] of less than 10 nM, an IC50 (LRRK2 (WT)) of 10 to 100 nM and an IC50 (LRRK2 G2019S) of 10 to 100 nM.
Compound `N#Cc1c(F)cccc1-c1ccc2nc(NC(=O)[C@@H]3C[C@@H]3F)cn2c1` [Example 60, (1S,2S)—N-(6-(2-cyano-3-fluorophenyl)imidazo[1,2-a]pyridin-2-yl)-2-fluorocyclopropanecarboxamide] has an IC50 [1] of 10 to 100 nM, an IC50 (LRRK2 (WT)) of 10 to 100 nM and an IC50 (LRRK2 G2019S) of 10 to 100 nM.
Compound `O=C(Nc1cn2cc(-c3cccc(F)c3Cl)ccc2n1)[C@@H]1C[C@@H]1F` [Example 61, (1S,2S)—N-(6-(2-chloro-3-fluorophenyl)imidazo[1,2-a]pyridin-2-yl)-2-fluorocyclopropanecarboxamide] has an IC50 [1] of less than 10 nM, an IC50 (LRRK2 (WT)) of 10 to 100 nM and an IC50 (LRRK2 G2019S) of 10 to 100 nM.
Compound `O=C(Nc1cn2cc(-c3cccc(F)c3F)ccc2n1)[C@@H]1C[C@@H]1F` [Example 62, (1S,2S)—N-(6-(2,3-difluorophenyl)imidazo[1,2-a]pyridin-2-yl)-2-fluorocyclopropanecarboxamide] has an IC50 [1] of less than 10 nM, an IC50 (LRRK2 (WT)) of 10 to 100 nM and an IC50 (LRRK2 G2019S) of 10 to 100 nM.
In the case of `Cc1ccc2[nH]cc(C)c2c1-c1ccc2nc(NC(=O)[C@@H]3C[C@@H]3F)cn2c1` [Example 63, (1S,2S)—N-(6-(3,5-dimethyl-1H-indol-4-yl)imidazo[1,2-a]pyridin-2-yl)-2-fluorocyclopropanecarboxamide], the IC50 [1] is reported as less than 10 nM, the IC50 (LRRK2 (WT)) is reported as 101 to 1000 nM and the IC50 (LRRK2 G2019S) is reported as 10 to 100 nM.
For `COCc1c(F)cccc1-c1ccc2nc(NC(=O)[C@@H]3C[C@@H]3F)cn2c1` [Example 64, (1S,2S)-2-fluoro-N-(6-(3-fluoro-2-(methoxymethyl)phenyl)imidazo[1,2-a]pyridin-2-yl)cyclopropanecarboxamide], the IC50 [1] was less than 10 nM, the IC50 (LRRK2 (WT)) was greater than 1000 nM and the IC50 (LRRK2 G2019S) was 101 to 1000 nM.
Compound `O=C(Nc1cn2cc(-c3cccc(F)c3-c3ccco3)ccc2n1)[C@@H]1C[C@@H]1F` [Example 65, (1S,2S)-2-fluoro-N-(6-(3-fluoro-2-(furan-2-yl)phenyl)imidazo[1,2-a]pyridin-2-yl)cyclopropanecarboxamide] has an IC50 [1] of 10 to 100 nM, an IC50 (LRRK2 (WT)) greater than 1000 nM and an IC50 (LRRK2 G2019S) greater than 1000 nM.
`CSc1c(F)cccc1-c1ccc2nc(NC(=O)[C@@H]3C[C@@H]3F)cn2c1` [Example 66, (1S,2S)-2-fluoro-N-(6-(3-fluoro-2-(methylthio)phenyl)imidazo[1,2-a]pyridin-2-yl)cyclopropanecarboxamide] gave an IC50 [1] of less than 10 nM, an IC50 (LRRK2 (WT)) of 101 to 1000 nM and an IC50 (LRRK2 G2019S) of 10 to 100 nM.
`Cc1cc(F)ncc1-c1ccc2nc(NC(=O)[C@@H]3C[C@@H]3F)cn2c1` [Example 67, (1S,2S)-2-fluoro-N-(6-(6-fluoro-4-methylpyridin-3-yl)imidazo[1,2-a]pyridin-2-yl)cyclopropanecarboxamide] gave an IC50 [1] of 10 to 100 nM, an IC50 (LRRK2 (WT)) of 10 to 100 nM and an IC50 (LRRK2 G2019S) of 10 to 100 nM.
`CC(=O)c1c(F)cccc1-c1ccc2nc(NC(=O)[C@@H]3C[C@@H]3F)cn2c1` [Example 68, (1S,2S)—N-(6-(2-acetyl-3-fluorophenyl)imidazo[1,2-a]pyridin-2-yl)-2-fluorocyclopropanecarboxamide] gave an IC50 [1] of 10 to 100 nM, an IC50 (LRRK2 (WT)) greater than 1000 nM and an IC50 (LRRK2 G2019S) greater than 1000 nM.
For `Cc1cc(N(C)C)ncc1-c1ccc2nc(NC(=O)[C@@H]3C[C@@H]3F)cn2c1` [Example 69, (1S,2S)—N-(6-(6-(dimethylamino)-4-methylpyridin-3-yl)imidazo[1,2-a]pyridin-2-yl)-2-fluorocyclopropanecarboxamide], the IC50 [1] was 101 to 1000 nM, the IC50 (LRRK2 (WT)) was greater than 1000 nM and the IC50 (LRRK2 G2019S) was greater than 1000 nM.
With `Cc1c(F)cccc1-c1ccc2nc(NC(=O)C3CC3)cn2c1` [Example 70, N-(6-(3-fluoro-2-methylphenyl)imidazo[1,2-a]pyridin-2-yl)cyclopropanecarboxamide] the IC50 [1] was less than 10 nM, the IC50 (LRRK2 (WT)) was 10 to 100 nM and the IC50 (LRRK2 G2019S) was 10 to 100 nM.
Compound `NCc1c(F)cccc1-c1ccc2nc(NC(=O)[C@@H]3C[C@@H]3F)cn2c1` [Example 74, (1S,2S)—N-(6-(2-(aminomethyl)-3-fluorophenyl)imidazo[1,2-a]pyridin-2-yl)-2-fluorocyclopropanecarboxamide] has an IC50 [1] greater than 1000 nM, an IC50 (LRRK2 (WT)) greater than 1000 nM and an IC50 (LRRK2 G2019S) greater than 1000 nM.
With `CC(=O)NCc1c(F)cccc1-c1ccc2nc(NC(=O)[C@@H]3C[C@@H]3F)cn2c1` [Example 75, (1S,2S)—N-(6-(2-(acetamidomethyl)-3-fluorophenyl)imidazo[1,2-a]pyridin-2-yl)-2-fluorocyclopropanecarboxamide] the IC50 [1] was 101 to 1000 nM, the IC50 (LRRK2 (WT)) was greater than 1000 nM and the IC50 (LRRK2 G2019S) was greater than 1000 nM.
In the case of `Cc1c(F)cccc1-c1ccc2nc(NC(=O)C3CCC3)cn2c1` [Example 76, N-(6-(3-fluoro-2-methylphenyl)imidazo[1,2-a]pyridin-2-yl)cyclobutanecarboxamide], the IC50 [1] is reported as 10 to 100 nM, the IC50 (LRRK2 (WT)) is reported as 10 to 100 nM and the IC50 (LRRK2 G2019S) is reported as 10 to 100 nM.
Compound `Cc1c(F)cccc1-c1ccc2nc(NC(=O)C3CC(F)C3)cn2c1` (stereo not drawn) [Example 78, 3-fluoro-N-(6-(3-fluoro-2-methylphenyl)imidazo[1,2-a]pyridin-2-yl)cyclobutanecarboxamide] has an IC50 [1] of 10 to 100 nM, an IC50 (LRRK2 (WT)) of 101 to 1000 nM and an IC50 (LRRK2 G2019S) of 10 to 100 nM.
Work on `Cc1c(F)cccc1-c1ccc2nc(NC(=O)C3CC(F)(F)C3)cn2c1` [Example 79, 3,3-difluoro-N-(6-(3-fluoro-2-methylphenyl)imidazo[1,2-a]pyridin-2-yl)cyclobutanecarboxamide] yielded an IC50 [1] of 10 to 100 nM, an IC50 (LRRK2 (WT)) of 101 to 1000 nM and an IC50 (LRRK2 G2019S) of 101 to 1000 nM.
